{"source": "patent US20220218852A1", "about": "“NOVEL RADIOLABELLED CXCR4-TARGETING COMPOUNDS FOR DIAGNOSIS AND THERAPY” (PROVINCIAL HEALTH SERVICES AUTHORITY, priority 2019, published 2022)", "experiment": "Biodistribution in Z138 tumor-bearing mice", "type": "in vivo", "settings": "male, mouse, iv, total radioactivity", "protocol": "For Daudi, Z138, GRANTA519 and Jeko1 xenografts, male NOD.Cg-Rag1^tm1MomII2rg^tm1Wjl/SzJ (NRG) mice were subcutaneously inoculated on the left flank with 5×10^6 cells (100 μL; 1:1 ratio of PBS/Matrigel) and tumors were grown to a size of 200-500 mm^3. For PC-3 xenografts, male NOD.Cg-Rag1^tm1MomII2rg^tm1Wjl/SzJ (NRG) mice were subcutaneously inoculated on the left flank with 5×10^6 PC-3 cells (100 μL; 1:1 ratio of PBS/Matrigel) and tumors were grown to a size of 200-400 mm^3.\nThe mice were euthanized via CO2 inhalation while anesthetized with isoflurane. Tissues were harvested, washed in PBS, blotted dry, weighed, and measured on a Hidex AMG Automatic Gamma Counter.", "key": {"[1]": {"settings": "NOD.Cg-Rag1^tm1MomII2rg^tm1Wjl/SzJ (NRG), blood, read-out: Biodistribution Blood"}, "[2]": {"settings": "NOD.Cg-Rag1^tm1MomII2rg^tm1Wjl/SzJ (NRG), bone, read-out: Biodistribution Bone"}, "[3]": {"settings": "NOD.Cg-Rag1^tm1MomII2rg^tm1Wjl/SzJ (NRG), brain, read-out: Biodistribution Brain"}, "[4]": {"settings": "NOD.Cg-Rag1^tm1MomII2rg^tm1Wjl/SzJ (NRG), fat, read-out: Biodistribution Fat"}, "[5]": {"settings": "NOD.Cg-Rag1^tm1MomII2rg^tm1Wjl/SzJ (NRG), intestine, read-out: Biodistribution Intestine"}, "[6]": {"settings": "NOD.Cg-Rag1^tm1MomII2rg^tm1Wjl/SzJ (NRG), stomach, read-out: Biodistribution Stomach"}, "[7]": {"settings": "NOD.Cg-Rag1^tm1MomII2rg^tm1Wjl/SzJ (NRG), testes, read-out: Biodistribution Testes"}, "[8]": {"settings": "NOD.Cg-Rag1^tm1MomII2rg^tm1Wjl/SzJ (NRG), tumour (Z138 xenograft), read-out: Biodistribution Z138 (tumour)"}, "[9]": {"settings": "NOD.Cg-Rag1tm1Mom Il2rgtm1Wjl/SzJ (NRG), adrenals, read-out: Biodistribution Adrenals"}, "[10]": {"settings": "NOD.Cg-Rag1tm1Mom Il2rgtm1Wjl/SzJ (NRG), heart, read-out: Biodistribution Heart"}, "[11]": {"settings": "NOD.Cg-Rag1tm1Mom Il2rgtm1Wjl/SzJ (NRG), kidney, read-out: Biodistribution Kidney"}}, "note": "Like-named read-outs stand apart in the source and are kept apart here. Positions of bridges follow the written chain, without caps; N, C: chain ends. Non-standard residues stand in square brackets, D forms with d. Residues, ends and D or L forms follow the SMILES beside them. Groups on a side chain read outwards from the residue. *: point of attachment. DOTA = O=C(O)CN1CCN(CC(=O)O)CCN(CC(=O)*)CCN(CC(=O)O)CC1; 2Nal = N[C@@H](Cc1ccc2ccccc2c1)C(=O)O; Lys(iPr) = CC(C)NCCCC[C@H](N)C(=O)O", "data": [{"smiles": "CC(C)NCCCC[C@@H]1NC(=O)[C@H](Cc2ccc(O)cc2)NC(=O)[C@H](Cc2ccccc2)NC(=O)CC[C@H](C(=O)N[C@@H](CCCCNC(C)C)C(=O)N[C@@H](CCCCNC(=O)[C@H](CCC(=O)O)NC(=O)[C@H](CCC(=O)O)NC(=O)[C@H](CCC(=O)O)NC(=O)CN2CCN(CC(=O)O)CCN(CC(=O)O)CCN(CC(=O)O)CC2)C(N)=O)NC(=O)CNC(=O)[C@H](Cc2ccc3ccccc3c2)NC(=O)[C@@H](CCCNC(=N)N)NC1=O", "note": "[[^177Lu]Lu-BL02, metal not drawn] (FY[Lys(iPr)][dR][2Nal]G[dE][Lys(iPr)]K([Glu-Glu-Glu-DOTA])-NH2; lactam N-7)", "values": [{"measurement": "tissue uptake at 1 h", "setting": "NOD.Cg-Rag1^tm1MomII2rg^tm1Wjl/SzJ (NRG), blood, 1 h, read-out: Biodistribution Blood", "value": 0.44, "unit": "%ID/g"}, {"measurement": "tissue uptake at 4 h", "setting": "[1]", "value": 0.03, "unit": "%ID/g"}, {"measurement": "tissue uptake at 24 h", "setting": "[1]", "value": 0.01, "unit": "%ID/g"}, {"measurement": "tissue uptake at 72 h", "setting": "[1]", "value": 0.007, "unit": "%ID/g"}, {"measurement": "tissue uptake at 1 h", "setting": "NOD.Cg-Rag1^tm1MomII2rg^tm1Wjl/SzJ (NRG), blood, with LY2510924 7.5 μg i.p. 15 min before radiotracer, 1 h blocked, read-out: Biodistribution Blood", "value": 2.06, "unit": "%ID/g"}, {"measurement": "tissue uptake at 1 h", "setting": "NOD.Cg-Rag1^tm1MomII2rg^tm1Wjl/SzJ (NRG), bone, 1 h, read-out: Biodistribution Bone", "value": 0.25, "unit": "%ID/g"}, {"measurement": "tissue uptake at 4 h", "setting": "[2]", "value": 0.11, "unit": "%ID/g"}, {"measurement": "tissue uptake at 24 h", "setting": "[2]", "value": 0.085, "unit": "%ID/g"}, {"measurement": "tissue uptake at 72 h", "setting": "[2]", "value": 0.053, "unit": "%ID/g"}, {"measurement": "tissue uptake at 1 h", "setting": "NOD.Cg-Rag1^tm1MomII2rg^tm1Wjl/SzJ (NRG), bone, 1 h blocked, read-out: Biodistribution Bone", "value": 0.49, "unit": "%ID/g"}, {"measurement": "tissue uptake at 1 h", "setting": "NOD.Cg-Rag1^tm1MomII2rg^tm1Wjl/SzJ (NRG), brain, 1 h, read-out: Biodistribution Brain", "value": 0.02, "unit": "%ID/g"}, {"measurement": "tissue uptake at 1 h", "setting": "NOD.Cg-Rag1^tm1MomII2rg^tm1Wjl/SzJ (NRG), brain, 1 h blocked, read-out: Biodistribution Brain", "value": 0.04, "unit": "%ID/g"}, {"measurement": "tissue uptake at 4 h", "setting": "[3]", "value": 0.01, "unit": "%ID/g"}, {"measurement": "tissue uptake at 24 h", "setting": "[3]", "value": 0.003, "unit": "%ID/g"}, {"measurement": "tissue uptake at 72 h", "setting": "[3]", "value": 0.001, "unit": "%ID/g"}, {"measurement": "tissue uptake at 1 h", "setting": "NOD.Cg-Rag1^tm1MomII2rg^tm1Wjl/SzJ (NRG), fat, 1 h, read-out: Biodistribution Fat", "value": 0.07, "unit": "%ID/g"}, {"measurement": "tissue uptake at 4 h", "setting": "[4]", "value": 0.03, "unit": "%ID/g"}, {"measurement": "tissue uptake at 24 h", "setting": "[4]", "value": 0.011, "unit": "%ID/g"}, {"measurement": "tissue uptake at 72 h", "setting": "[4]", "value": 0.008, "unit": "%ID/g"}, {"measurement": "tissue uptake at 1 h", "setting": "NOD.Cg-Rag1^tm1MomII2rg^tm1Wjl/SzJ (NRG), fat, with LY2510924 7.5 μg i.p. 15 min before radiotracer, 1 h blocked, read-out: Biodistribution Fat", "value": 0.19, "unit": "%ID/g"}, {"measurement": "tissue uptake at 1 h", "setting": "NOD.Cg-Rag1^tm1MomII2rg^tm1Wjl/SzJ (NRG), intestine, 1 h, read-out: Biodistribution Intestine", "value": 0.27, "unit": "%ID/g"}, {"measurement": "tissue uptake at 1 h", "setting": "NOD.Cg-Rag1^tm1MomII2rg^tm1Wjl/SzJ (NRG), intestine, 1 h blocked, read-out: Biodistribution Intestine", "value": 0.75, "unit": "%ID/g"}, {"measurement": "tissue uptake at 4 h", "setting": "[5]", "value": 0.09, "unit": "%ID/g"}, {"measurement": "tissue uptake at 24 h", "setting": "[5]", "value": 0.126, "unit": "%ID/g"}, {"measurement": "tissue uptake at 72 h", "setting": "[5]", "value": 0.023, "unit": "%ID/g"}, {"measurement": "tissue uptake at 1 h", "setting": "NOD.Cg-Rag1^tm1MomII2rg^tm1Wjl/SzJ (NRG), stomach, 1 h, read-out: Biodistribution Stomach", "value": 0.12, "unit": "%ID/g"}, {"measurement": "tissue uptake at 1 h", "setting": "NOD.Cg-Rag1^tm1MomII2rg^tm1Wjl/SzJ (NRG), stomach, 1 h blocked, read-out: Biodistribution Stomach", "value": 0.2, "unit": "%ID/g"}, {"measurement": "tissue uptake at 4 h", "setting": "[6]", "value": 0.07, "unit": "%ID/g"}, {"measurement": "tissue uptake at 24 h", "setting": "[6]", "value": 0.052, "unit": "%ID/g"}, {"measurement": "tissue uptake at 72 h", "setting": "[6]", "value": 0.022, "unit": "%ID/g"}, {"measurement": "tissue uptake at 1 h", "setting": "NOD.Cg-Rag1^tm1MomII2rg^tm1Wjl/SzJ (NRG), testes, 1 h, read-out: Biodistribution Testes", "value": 0.18, "unit": "%ID/g"}, {"measurement": "tissue uptake at 4 h", "setting": "[7]", "value": 0.04, "unit": "%ID/g"}, {"measurement": "tissue uptake at 24 h", "setting": "[7]", "value": 0.032, "unit": "%ID/g"}, {"measurement": "tissue uptake at 72 h", "setting": "[7]", "value": 0.029, "unit": "%ID/g"}, {"measurement": "tissue uptake at 1 h", "setting": "NOD.Cg-Rag1^tm1MomII2rg^tm1Wjl/SzJ (NRG), testes, with LY2510924 7.5 μg i.p. 15 min before radiotracer, 1 h blocked, read-out: Biodistribution Testes", "value": 0.39, "unit": "%ID/g"}, {"measurement": "tissue uptake at 1 h", "setting": "NOD.Cg-Rag1^tm1MomII2rg^tm1Wjl/SzJ (NRG), tumour (Z138 xenograft), 1 h, read-out: Biodistribution Z138 (tumour)", "value": 17.2, "unit": "%ID/g"}, {"measurement": "tissue uptake at 1 h", "setting": "NOD.Cg-Rag1^tm1MomII2rg^tm1Wjl/SzJ (NRG), tumour (Z138 xenograft), 1 h blocked, read-out: Biodistribution Z138 (tumour)", "value": 3.75, "unit": "%ID/g"}, {"measurement": "tissue uptake at 4 h", "setting": "[8]", "value": 15.6, "unit": "%ID/g"}, {"measurement": "tissue uptake at 24 h", "setting": "[8]", "value": 8.79, "unit": "%ID/g"}, {"measurement": "tissue uptake at 72 h", "setting": "[8]", "value": 3.57, "unit": "%ID/g"}, {"measurement": "tissue uptake at 1 h", "setting": "NOD.Cg-Rag1tm1Mom Il2rgtm1Wjl/SzJ (NRG), adrenals, 1 h, read-out: Biodistribution Adrenals", "value": 0.46, "unit": "%ID/g"}, {"measurement": "tissue uptake at 1 h", "setting": "NOD.Cg-Rag1tm1Mom Il2rgtm1Wjl/SzJ (NRG), adrenals, 1 h blocked, read-out: Biodistribution Adrenals", "value": 0.47, "unit": "%ID/g"}, {"measurement": "tissue uptake at 4 h", "setting": "[9]", "value": 0.13, "unit": "%ID/g"}, {"measurement": "tissue uptake at 24 h", "setting": "[9]", "value": 0.117, "unit": "%ID/g"}, {"measurement": "tissue uptake at 72 h", "setting": "[9]", "value": 0.073, "unit": "%ID/g"}, {"measurement": "tissue uptake at 1 h", "setting": "NOD.Cg-Rag1tm1Mom Il2rgtm1Wjl/SzJ (NRG), heart, 1 h, read-out: Biodistribution Heart", "value": 0.18, "unit": "%ID/g"}, {"measurement": "tissue uptake at 1 h", "setting": "NOD.Cg-Rag1tm1Mom Il2rgtm1Wjl/SzJ (NRG), heart, 1 h blocked, read-out: Biodistribution Heart", "value": 0.46, "unit": "%ID/g"}, {"measurement": "tissue uptake at 4 h", "setting": "[10]", "value": 0.05, "unit": "%ID/g"}, {"measurement": "tissue uptake at 24 h", "setting": "[10]", "value": 0.035, "unit": "%ID/g"}, {"measurement": "tissue uptake at 72 h", "setting": "[10]", "value": 0.022, "unit": "%ID/g"}, {"measurement": "tissue uptake at 1 h", "setting": "NOD.Cg-Rag1tm1Mom Il2rgtm1Wjl/SzJ (NRG), kidney, 1 h, read-out: Biodistribution Kidney", "value": 3.87, "unit": "%ID/g"}, {"measurement": "tissue uptake at 1 h", "setting": "NOD.Cg-Rag1tm1Mom Il2rgtm1Wjl/SzJ (NRG), kidney, 1 h blocked, read-out: Biodistribution Kidney", "value": 10.9, "unit": "%ID/g"}, {"measurement": "tissue uptake at 4 h", "setting": "[11]", "value": 3.27, "unit": "%ID/g"}, {"measurement": "tissue uptake at 24 h", "setting": "[11]", "value": 1.43, "unit": "%ID/g"}, {"measurement": "tissue uptake at 72 h", "setting": "[11]", "value": 0.56, "unit": "%ID/g"}]}]}
